In patent US20200190067A1, “PHOTO-SWITCHABLE CHEMICAL INDUCERS OF DIMERIZATION FOR CONTROL OF PROTEIN FUNCTION IN CELLS BY LIGHT” (Max-Planck-Gesellschaft zur Förderung der Wissenschaften …, priority 2017, published 2020) one finds absorption peak data, which are given here for 1 molecule.

A short description of the series: UV-Vis absorption spectra. Type of series: physicochemical. The settings on record: 50 μM dimerizer in PBS buffer (pH 7.4, 0.5% DMSO). The procedure:
FIG. 1: UV-Vis absorption spectra of TMP—PC—Cl (black) and 4-CmTMP—PC—Cl (red). A solution of 50 μM of the respective dimerizer in PBS buffer (pH 7.4, 0.5% DMSO) was subjected to UV-Vis absorption analysis (FIG. 1). 0.5% DMSO in PBS was used as the blank.
UV-Vis absorption spectra were recorded using SHIMADZU UV-2401PC UV-Vis Recording Spectrophotometer. A solution of 50 μM of the respective dimerizer in PBS buffer (pH 7.4, 0.5% DMSO) was subjected to UV-Vis absorption analysis (FIG. 1). 0.5% DMSO in PBS was used as the blank.

With `COc1cc(COC(=O)NCCCOCCOCCOCCCNC(=O)COc2c(OC)cc(Cc3cnc(N)nc3N)cc2OC)c([N+](=O)[O-])cc1OCCOCCOCCOCCOCCOCCCCCCCl` [TMP—PC—Cl, 4-((21-Chloro-3,6,9,12,15-pentaoxahenicosyl)oxy)-5-methoxy-2-nitrobenzyl (1-(4-((2,4-diaminopyrimidin-5-yl)methyl)-2,6-dimethoxyphenoxy)-2-oxo-7,10,13-trioxa-3-azahexadecan-16-yl)carbamate], the absorption peak is given as 348.5 nm.
